Source: paper PMC10010161 (RSC Advances, 2023)
Where a SMILES comes first, the peptide text is derived from it.

How the values were obtained:
Horizon-LBA = format: in vitro ADME; conditions: DOPC; for relative permeability compared with CsA (in words): 2 h; for degree of decrease of permeability coefficient relative to 1: 1.5 h
Caco-2 = Caco-2 assay; cited from earlier work
[1] = PAMPA; cited from earlier work

Compound | relative permeability compared with CsA (in words) (Horizon-LBA) | degree of decrease of permeability coefficient relative to 1 (Horizon-LBA) | other results
CC[C@@H]1NC(=O)[C@H](C)N(C)C(=O)[C@H](C(C)C)N(C)C(=O)[C@H](CC(C)C)N(C)C(=O)[C@H](CC(C)C)N(C)C(=O)[C@@H](C)NC(=O)[C@H](C)NC(=O)[C@H](CC(C)C)N(C)C(=O)[C@H](C(C)C)NC(=O)[C@H](CC(C)C)N(C)C(=O)CN(C)C1=O [compound 1] | higher permeability than CsA |  | 
CC[C@@H]1NC(=O)[C@H](CC(C)C)N(C)C(=O)[C@H](C(C)C)N(C)C(=O)[C@H](CC(C)C)N(C)C(=O)[C@H](CC(C)C)N(C)C(=O)[C@@H](C)NC(=O)[C@H](C)NC(=O)[C@H](CC(C)C)N(C)C(=O)[C@H](C(C)C)NC(=O)[C@H](CC(C)C)N(C)C(=O)CN(C)C1=O [compound 2] | significant differences in the relative permeability of 2 and 3 from CsA were not observed |  | 
CC[C@@H]1NC(=O)[C@H]([C@@H](C)O)N(C)C(=O)[C@H](C(C)C)N(C)C(=O)[C@H](CC(C)C)N(C)C(=O)[C@H](CC(C)C)N(C)C(=O)[C@@H](C)NC(=O)[C@H](C)NC(=O)[C@H](CC(C)C)N(C)C(=O)[C@H](C(C)C)NC(=O)[C@H](CC(C)C)N(C)C(=O)CN(C)C1=O [compound 3] | significant differences in the relative permeability of 2 and 3 from CsA were not observed |  | 
CC[C@@H]1NC(=O)[C@H](C)N(C)C(=O)[C@H](C(C)C)N(C)C(=O)[C@H](CC(C)C)N(C)C(=O)[C@H](CC(C)C)N(C)C(=O)[C@@H](C)NC(=O)[C@H](C)NC(=O)[C@H](CC(C)C)N(C)C(=O)[C@H](C(C)C)NC(=O)[C@H](C)N(C)C(=O)CN(C)C1=O [compound 5] (HELM PEPTIDE1{A.[dA].[meL].[meL].[meV].[meA].[Abu].[Sar].[meA].V.[meL]}$PEPTIDE1,PEPTIDE1,1:R1-11:R2$$$V2.0) |  | less than 50% | 
CC[C@@H]1NC(=O)[C@H](C)N(C)C(=O)[C@H](C(C)C)N(C)C(=O)[C@H](CC(C)C)N(C)C(=O)[C@H](C)N(C)C(=O)[C@@H](C)NC(=O)[C@H](C)NC(=O)[C@H](CC(C)C)N(C)C(=O)[C@H](C(C)C)NC(=O)[C@H](CC(C)C)N(C)C(=O)CN(C)C1=O [compound 8] (HELM PEPTIDE1{A.[dA].[meA].[meL].[meV].[meA].[Abu].[Sar].[meL].V.[meL]}$PEPTIDE1,PEPTIDE1,1:R1-11:R2$$$V2.0) |  | less than 50% | 
cyclosporin O [CsO] |  |  | permeability compared with CsA (in words) (Caco-2): lower permeability of CsO than CsA; permeability compared with CsA (in words) [1]: lower permeability of CsO than CsA
